The text below walks through data of patent US20030069187A1, “Elastase inhibitors” (priority 2001, published 2003).

pKi: −log10 of the molar value.

One assay concerns the target elastase. Particulars: other elastase inhibitors, compared with AFP; cited from earlier work.
The target of assay [1] is T1, porcine pancreatic elastase (PPE) (Sus scrofa, UniProt P00772).
T1 construct: purchased Calbiochem, San Diego, Calif
Description: Elastase inhibitory capacity assay with succinylated elastin substrate. Format: biochemical. The following applies: 0.029 U PPE, 200 μg succinylated elastin; for increase in elastase inhibitory capacity compared to total EDP: 37° C. 30 min, % inhibition standardized to μg protein, p<0.001. As to the method:
FIG. 1 is a bar graph depicting results from experiments in which the inhibitory capacity of each EDP isolate was evaluated in triplicate using 200 μg of succinylated elastin (Rao et al., 1997; Mathrubutham et al., 1998), 30 μg of Total EDP, […] of G-25 fractions and RP-HPLC fractions and 0.029 U PPE in 150 μl with 50 mM sodium borate pH8.5. Reactions were incubated at 37° C. for 30 minutes, then treated with 2,4,6-trinitrobenzene sufonic acid. Absorbance at A450nm was determined after 20 min at room temperature. Elastase inhibitory capacity was evaluated by comparing the activity of PPE in the presence and absence of EDP, where elastase in the absence of EDP was considered to represent 100% elastase activity. The data was standardized to protein content and is presented as % inhibition per μg of protein. […] PEP7 is VPG; PEP8 is AGIP and PEP9 is AFP.
Total EDP was fractionated on a G-25 Sephadex column equilibrated with 50 mM sodium borate pH 8.5 at a flow rate of 0.7 ml/minute. G-25 inhibitory fractions were then analyzed by reverse phase high performance liquid chromatography (RP-HPLC) using a C-18 column (Vydac, Hesperia, Calif.) with 5% acetonitrile, 0.1% triflouroacetic acid pH 2.3 as RP buffer at a flow rate of 0.5 ml/minutes and monitored at A205nm. Fractions were collected, dried, and resuspended in 50 μl water and assayed for elastase inhibitory capacity (Rao et al., 1997; Mathrabutham et al., 1998). The inhibitory capacity of G-25 and RP-HPLC EDP fractions were evaluated (Rao et al., 1997; Mathrabutham et al., 1998) using 3 μg of G-25 fraction and RP-HPLC peptide with 0.029 U PPE. Percentage inhibitory capacity was evaluated by comparing the activity of PPE in the presence and absence (100% activity) of EDP and standardized to μg protein. The inhibitor constant (Ki) was experimentally calculated (Lineweaver et al., 1936). […]

T1 sequence (P00772 27-266): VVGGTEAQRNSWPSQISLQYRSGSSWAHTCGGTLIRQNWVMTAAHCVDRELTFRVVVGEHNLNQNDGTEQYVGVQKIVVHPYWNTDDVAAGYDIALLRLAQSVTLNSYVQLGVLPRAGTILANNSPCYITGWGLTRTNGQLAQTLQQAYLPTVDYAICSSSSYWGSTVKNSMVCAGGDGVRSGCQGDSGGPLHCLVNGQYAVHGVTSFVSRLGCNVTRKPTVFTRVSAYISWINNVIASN

Turning to `CC(C)C[C@H](NC(=O)N[C@H](C(=O)N[C@@H](CCC(N)=O)C(=O)N[C@@H](C)C=O)[C@@H]1CCNC(=N)N1)C(=O)O` [elastatinal], the pKi on elastase is 4.30.
For the compound VGVAPG, in assay [1] (FIG. 1), the “elastase inhibition (% inhibition per μg of protein)” value is on record as “elastase inhibition is a characteristic that is not shared by all EDPs”.
As to Val-Pro-Gly [VPG], the “increase in elastase inhibitory capacity compared to total EDP” value in assay [1] was found to be 4.8 fold.
Regarding “Ala-Gly-Ile-Pro (AGIP; printed: Ala-Gly-Ile-Pro)”, in assay [1], the “increase in elastase inhibitory capacity compared to total EDP” value stood at 4.3 fold.

In general, pKi refers to −log10 of the Ki, conventionally taken in molar units.
